From patent publication US20080119462A1, “METHOD FOR TREATING VASCULAR HYPERPERMEABLE DISEASE” (Sucampo AG, priority 2003, published 2008)

Key:
[1] = biological target: T1, retinal VAP-1 (Rattus norvegicus, UniProt O08590); assay: Retinal VAP-1 activity in STZ diabetic rats after eye-drop instillation; assay type: in vivo
T1 construct: from tissue; host or cells: retina of STZ diabetic rats
T1 sequence (O08590 1-763): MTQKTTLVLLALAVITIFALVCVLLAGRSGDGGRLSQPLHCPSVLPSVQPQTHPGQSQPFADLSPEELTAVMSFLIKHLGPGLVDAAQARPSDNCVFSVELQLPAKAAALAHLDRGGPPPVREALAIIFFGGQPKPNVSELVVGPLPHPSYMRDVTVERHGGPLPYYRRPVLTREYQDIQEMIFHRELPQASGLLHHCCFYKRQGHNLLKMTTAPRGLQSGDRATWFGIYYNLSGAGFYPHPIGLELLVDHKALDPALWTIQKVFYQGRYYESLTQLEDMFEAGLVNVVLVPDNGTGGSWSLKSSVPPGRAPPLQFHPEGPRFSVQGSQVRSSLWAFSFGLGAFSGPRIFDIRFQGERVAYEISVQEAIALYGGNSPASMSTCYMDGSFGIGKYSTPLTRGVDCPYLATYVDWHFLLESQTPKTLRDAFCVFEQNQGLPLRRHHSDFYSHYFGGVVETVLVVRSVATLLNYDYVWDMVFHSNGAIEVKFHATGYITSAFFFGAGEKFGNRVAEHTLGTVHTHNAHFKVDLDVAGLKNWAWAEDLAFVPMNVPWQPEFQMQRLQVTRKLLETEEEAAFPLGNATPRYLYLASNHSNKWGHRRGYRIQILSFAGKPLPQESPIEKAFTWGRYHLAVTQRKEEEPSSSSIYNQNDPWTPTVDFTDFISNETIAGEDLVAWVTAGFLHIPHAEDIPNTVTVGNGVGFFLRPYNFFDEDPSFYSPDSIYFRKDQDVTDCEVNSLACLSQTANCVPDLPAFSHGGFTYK
Experimental: A 0.1% solution of Compound A was instilled into the eyes of STZ diabetic rats (10 μl/eye) prepared in the same manner as in Example 2. To the normal group and STZ control group, a vehicle was instilled. At 6 hours from the instillation, the retina was removed from the animals and the retinal VAP-1 activity was determined.

[2] = biological target: T2, Human platelet MAO (Homo sapiens, UniProt P27338); assay: Monoamine oxidase (MAO) activity assay with 14C-phenylethylamine; assay type: biochemical
T2 construct: human platelet MAO; from tissue; host or cells: human platelets
T2 sequence (P27338 1-520): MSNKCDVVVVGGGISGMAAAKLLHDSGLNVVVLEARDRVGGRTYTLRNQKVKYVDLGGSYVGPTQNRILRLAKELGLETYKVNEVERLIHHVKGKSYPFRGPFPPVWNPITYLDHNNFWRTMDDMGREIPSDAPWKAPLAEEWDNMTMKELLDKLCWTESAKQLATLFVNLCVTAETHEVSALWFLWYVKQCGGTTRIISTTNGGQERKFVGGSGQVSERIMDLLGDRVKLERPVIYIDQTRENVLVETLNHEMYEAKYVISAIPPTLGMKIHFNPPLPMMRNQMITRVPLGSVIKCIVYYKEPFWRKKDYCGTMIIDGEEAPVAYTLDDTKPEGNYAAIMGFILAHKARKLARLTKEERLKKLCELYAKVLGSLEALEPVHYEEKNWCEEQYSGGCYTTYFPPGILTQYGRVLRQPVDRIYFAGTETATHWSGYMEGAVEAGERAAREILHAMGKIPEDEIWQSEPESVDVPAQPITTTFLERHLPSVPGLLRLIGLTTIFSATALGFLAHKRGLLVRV
Experimental: VAP-1 enzyme (SSAO) activity in both human and rat plasma was determined by a radiochemical-enzyme assay using ^14C-benzylamine as artificial substrate. The enzyme suspension prepared from blood plasma was pre-incubated with Compound A in 96-well microplate at room temperature for 30 min. The enzyme suspension was then incubated with ^14C-benzylamine (2×10^−5 mol/l final concentration) in a final volume of 50 μl at 37° C. for 1 hour. The enzyme reaction was terminated by adding 2 mol/l (50 μl) citric acid. The oxidized products were directly extracted into a 200 μl toluene scintillator, and its radioactivity was measured by a scintillation spectrometer. Monoamine oxidase (MAO) and diamine oxidase (DAO, histaminase) activities were also determined by similar method using ^14C-phenylethylamine and ^14C-putrescine as substrate, respectively. Cloned DAO from cDNA libraries was used in human DAO assay. Inhibition activity was expressed as IC50 (μmol/l) value.

[3] = biological target: T3, plasma SSAO (Rattus norvegicus, UniProt O08590); assay: Plasma SSAO activity in STZ diabetic rats after treatment; assay type: in vivo
T3 construct: The enzyme suspension prepared from blood plasma was pre-incubated with Compound A; from tissue; host or cells: rat blood plasma
T3 sequence (O08590 27-763 limits assumed): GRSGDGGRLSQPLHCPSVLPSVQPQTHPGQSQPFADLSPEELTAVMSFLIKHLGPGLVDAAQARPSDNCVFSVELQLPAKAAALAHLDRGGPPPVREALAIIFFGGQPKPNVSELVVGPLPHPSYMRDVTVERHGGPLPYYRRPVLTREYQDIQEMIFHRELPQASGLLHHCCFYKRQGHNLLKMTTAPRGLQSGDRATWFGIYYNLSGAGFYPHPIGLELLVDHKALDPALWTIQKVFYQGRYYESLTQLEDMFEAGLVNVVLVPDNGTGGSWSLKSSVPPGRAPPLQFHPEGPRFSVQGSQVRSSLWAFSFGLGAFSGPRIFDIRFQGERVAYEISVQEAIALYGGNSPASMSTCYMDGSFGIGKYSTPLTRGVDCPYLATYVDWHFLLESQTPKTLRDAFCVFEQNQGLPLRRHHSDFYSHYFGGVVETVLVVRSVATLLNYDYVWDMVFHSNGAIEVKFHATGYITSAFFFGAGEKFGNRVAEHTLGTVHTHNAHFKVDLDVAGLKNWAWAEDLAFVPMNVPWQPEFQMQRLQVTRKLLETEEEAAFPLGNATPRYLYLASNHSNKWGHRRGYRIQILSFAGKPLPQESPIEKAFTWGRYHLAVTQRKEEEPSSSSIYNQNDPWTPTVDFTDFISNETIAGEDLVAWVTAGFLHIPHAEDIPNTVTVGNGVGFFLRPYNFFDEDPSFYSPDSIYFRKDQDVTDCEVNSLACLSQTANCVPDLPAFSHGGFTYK
Experimental: Diabetes in rats was induced with an intraperitoneal (i.p.) injection of 65 mg/ml/kg of streptozotocin (STZ) in 2 mmol/l citrate buffer (pH 4.5) after a 20-h fast. At the same time control rats were injected with an equal volume of 2 mmol/l citrate buffer. Plasma glucose level was checked by a calorimetric method. At day 3 of STZ treatment, the rats were diagnosed with diabetes showing a plasma glucose level of 350 mg/dl.
The treatment of Compound A was given daily from 2 weeks after STZ treatment for 2 weeks. At 24 hrs after final treatment of Compound A, the vascular permeability in oculus was investigated based on the leakage of dye into the vitreous 30 min after intravenous injection of fluorescein solution (40 mg/ml/kg). Permeability was expressed as vitreous/plasma ratio of fluorescein concentration measured by a fluorophotometer. At the same time, the plasma SSAO activity was checked by the radiochemical-enzyme assay using ^14C-benzylamine (2×10^−5 mol/l final concentration) as substrate.

Effect on the increased retinal VAP-1 activity in STZ diabetic rats (in words) ([1]; 0.1% solution instilled into the eyes, 6 hours): completely inhibited
Retinal VAP-1 activity ([1]; STZ diabetic rats, 0.1%, ocular instillation (10 μl/eye), 6 hours after instillation, mean ± S.E.M., 4 rats): 4.86 ± 0.70 pmol/min/mg protein
Inhibition of the enzyme activity of human platelet MAO (in words) [2]: not
IC50 ([2]; 14C-phenylethylamine as substrate, read-out: Inhibitory effect (IC50 values) Human platelet MAO): > 100 µM
Effect on the increased plasma SSAO activity in diabetic rats (in words) ([3]; 4 weeks after STZ treatment): dose-dependent inhibition
Plasma SSAO activity ([3]; STZ diabetic rats, 4 weeks after STZ, Compound A treatment daily from 2 weeks after STZ, mean ± S.E.M., 10 rats): 2.51 ± 0.26 pmol/min/mL
SMILES: CC(=O)Nc1nc(CCc2ccc(NC(=N)N)cc2)cs1 [Compound A, N-{4-[2-(4-{[amino(imino)methyl]amino}phenyl)ethyl]-1,3-thiazol-2-yl}acetamide]
